Assay results reported in patent US20240197733A1, “A GABA RECEPTOR MODULATOR FOR USE IN THE TREATMENT OF PAIN” (SANIONA A/S, priority 2021, published 2024).

Assays:
Format in all cases: in vivo, Sprague-Dawley rats
[1] = tested on: electrocutaneous stimulation-induced facial pain rodent model; assay: ES-induced facial pain model, mechanical allodynia (Von Frey filaments), acute treatment; settings: 30 mg/kg po, acute, 2 and 4 hours post dosing; p<0.001, p<0.0001 vs vehicle
Text: (§1) The electrocutaneous stimulation-induced facial pain rodent model is a reproducible orofacial pain model in which depilated cheek area of rats are repeatedly subjected to electrical stimulation. Repeated electrical stimulation at low intensities produces craniofacial pain that mimics the behavioral characteristics of TN such as development of mechanical and thermal allodynia at cheeks despite no visible edema, swelling or excessive injury and tissue damage.
(§2) Male wild type, Sprague-Dawley rats (Charles River Laboratories) born in-house at AfaSci Research Laboratory between May 24, 2020 to May 28, 2020. At approximately 3 months of age (approximately 350 g-450 g body weight) the rats were deemed suitable for the electrocutaneous stimulation-induced facial pain model. Prior to the experiment, the rats were maintained in group cages (3 rats per cage) in a controlled environment (temperature: 21.5±4.5° C./relative humidity: 35-55%) under a standard 12 h light/12 h dark lighting cycle (lights on at 06:00).
(§3) The required quantity of the compounds are weighed and dissolved in 100% DMSO in a volume amounting to 5% of the total volume while placed on a stirrer. The weight of the compounds refers to the free base weights. Once the solution becomes clear/transparent, the remaining volume of the vehicle is added (30% HPBCD prepared in MQ water) to final concentrations of 0.1, 0.3, and 1 mg/ml for Compound 1 and 3 mg/ml of Carbamazepine. The solutions are kept on a stirrer before- and during administration of the compounds to the animals.
(§4) The experimenter assessing the behavioral responses to drug administration is blinded to the drug treatment to the animals. Each treatment group is coded according the scheme below: • A. Vehicle (5% DMSO+30% HPBCD): 10 ml/kg • B. Compound 1: 1 mg/kg • C. Compound 1: 3 mg/kg • D. Compound 1: 10 mg/kg • F. Carbamazepine: 30 mg/kg
(§5) Second baseline measurement was carried out similarly to day 1. […] For each animal, the average of the two baseline nociceptive measurements were calculated within each pain modality (mechanical, heat- and cold pain), and used as baseline (“Baseline” point on figures).
Similarly, to day 1- and 2, all rats were subjected to acclimatization to test equipment and decapicone followed by measurements of ES-induced facial mechanical- heat- and cold allodynia (“0” time point on figures). […] Compound 1, vehicle and Carbamazepine was administered perorally in doses of 1, 3, and 10 mg/kg (Compound 1) or 30 mg/kg (carbamazepine) and drug effects on pain thresholds were evaluated 2- and 4 hours after drug administration by assessment of mechanical- (von Frey) and thermal hypersensitivity (heat- and cold stimulation respectively).
(§6) Decrease in ES-induced pain threshold was evaluated 22 hours following electrical stimulation of the depilated left cheek area (between the eye and ear ridge, this is a receptive field of trigeminal nerve) of each rat and was manifested as facial withdrawal following application of Von Frey filaments for mechanical allodynia and a heat lamp and acetone test for thermal hyperalgesia and allodynia respectively. Baseline pain behaviors were measured similarly to ES-induced facial pain measurements, except that rats were not subjected to ES stimulation.
Mechanical pain thresholds were assessed by measuring each rat's facial withdrawal threshold (g) in response to von Frey monofilaments (BioSeb). […]

[2] = tested on: electrocutaneous stimulation-induced facial pain rodent model; assay: ES-induced facial pain model, hot thermal hyperalgesia (lamp test, selective C fiber testing), acute treatment; settings: 30 mg/kg po, post 4 hours of dose, p<0.0001
Text: as §1, §2, §3, §4
Second baseline measurement was carried out similarly to day 1. Immediately following the second baseline recording, each rat received 1 hr of electrocutaneous stimulation at cheek (0.4 mA intensity, 10 ms duration, 1 s inter-pulse interval). For each animal, the average of the two baseline nociceptive measurements were calculated within each pain modality (mechanical, heat- and cold pain), and used as baseline (“Baseline” point on figures).
Similarly, to day 1- and 2, all rats were subjected to acclimatization to test equipment and decapicone followed by measurements of ES-induced facial mechanical- heat- and cold allodynia (“0” time point on figures). Based on the individual rat's mechanical- and thermal hypersensitivity, 40 rats were selected for drug testing. Compound 1, vehicle and Carbamazepine was administered perorally in doses of 1, 3, and 10 mg/kg (Compound 1) or 30 mg/kg (carbamazepine) and drug effects on pain thresholds were evaluated 2- and 4 hours after drug administration by assessment of mechanical- (von Frey) and thermal hypersensitivity (heat- and cold stimulation respectively).
as §6
Immediately following assessment of mechanical pain threshold, thermal (hot- and cold induced) pain was determined. […]

[3] = tested on: electrocutaneous stimulation-induced facial pain rodent model; assay: ES-induced facial pain model, cold thermal allodynia (acetone test), acute treatment; settings: 30 mg/kg po, 2 and 4 hrs post dose, p<0.001 and p<0.0001 vs vehicle
Text: as §1, §2
The required quantity of the compounds are weighed and dissolved in 100% DMSO in a volume amounting to 5% of the total volume while placed on a stirrer. The weight of the compounds refers to the free base weights. […]
as §5
Similarly, to day 1- and 2, all rats were subjected to acclimatization to test equipment and decapicone followed by measurements of ES-induced facial mechanical- heat- and cold allodynia (“0” time point on figures). […] Compound 1, vehicle and Carbamazepine was administered perorally in doses of 1, 3, and 10 mg/kg (Compound 1) or 30 mg/kg (carbamazepine) and drug effects on pain thresholds were evaluated 2- and 4 hours after drug administration by assessment of mechanical- (von Frey) and thermal hypersensitivity (heat- and cold stimulation respectively). […]

With `NC(=O)N1c2ccccc2C=Cc2ccccc21` [Carbamazepine, reference compound] the “effect on mechanical allodynia (mechanical pain threshold, Von Frey) vs vehicle” value [1] was “significant analgesic effects”, the “effect on heat thermal hyperalgesia (facial withdrawal latency) vs vehicle” value [2] was “full reversal of heat hyperalgesia” and the “effect on cold pain threshold (acetone test, facial withdrawal latency) vs vehicle” value [3] was “significant enhancement of the cold pain threshold”.
